The values below come from patent US12415794B2 (Edgewise Therapeutics, Inc., priority 2018, dated 2025).

pIC50: −log10 of the molar value.

Experiment [1] deals with T1, cardiac myofibrils (myosin ATPase).
T1 construct: frozen myofibril pellets obtained from cardiac tissue; from tissue
The experiment in a line: Cardiac Myofibril ATPase Assay (counter screen). The class given is biochemical. As to conditions: myofibrils 1.0 mg/mL, KCl omitted. In outline:
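Myosin ATPase rate followed via NADH disappearance at 340 nm, coupled through pyruvate kinase and lactate dehydrogenase, using cardiac myofibril pellets (final 1.0 mg/mL) without KCl. IC50 values reflect rate reduction compared with vehicle-treated wells.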

Experiment [2] concerns the target skeletal myofibrils (myosin ATPase). The experiment in a line: Skeletal Myofibril ATPase Assay. In kind it is biochemical. The gist of the method: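 Rates of NADH loss (A340, kinetic read over 45 min) report ADP generation by myofibrillar myosin, coupled through pyruvate kinase and lactate dehydrogenase; pCa buffer at pH 7.0. IC50 fitted by 4-parameter logistic after normalizing to 1% DMSO controls; cardiac myofibrils served for selectivity.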

For experiment [3], the system named is embryos from zebrafish model of DMD. The settings on record: Li and Amer, PLoSONE, 2015; cited from earlier work.

T1 sequence (P12883 whole entry): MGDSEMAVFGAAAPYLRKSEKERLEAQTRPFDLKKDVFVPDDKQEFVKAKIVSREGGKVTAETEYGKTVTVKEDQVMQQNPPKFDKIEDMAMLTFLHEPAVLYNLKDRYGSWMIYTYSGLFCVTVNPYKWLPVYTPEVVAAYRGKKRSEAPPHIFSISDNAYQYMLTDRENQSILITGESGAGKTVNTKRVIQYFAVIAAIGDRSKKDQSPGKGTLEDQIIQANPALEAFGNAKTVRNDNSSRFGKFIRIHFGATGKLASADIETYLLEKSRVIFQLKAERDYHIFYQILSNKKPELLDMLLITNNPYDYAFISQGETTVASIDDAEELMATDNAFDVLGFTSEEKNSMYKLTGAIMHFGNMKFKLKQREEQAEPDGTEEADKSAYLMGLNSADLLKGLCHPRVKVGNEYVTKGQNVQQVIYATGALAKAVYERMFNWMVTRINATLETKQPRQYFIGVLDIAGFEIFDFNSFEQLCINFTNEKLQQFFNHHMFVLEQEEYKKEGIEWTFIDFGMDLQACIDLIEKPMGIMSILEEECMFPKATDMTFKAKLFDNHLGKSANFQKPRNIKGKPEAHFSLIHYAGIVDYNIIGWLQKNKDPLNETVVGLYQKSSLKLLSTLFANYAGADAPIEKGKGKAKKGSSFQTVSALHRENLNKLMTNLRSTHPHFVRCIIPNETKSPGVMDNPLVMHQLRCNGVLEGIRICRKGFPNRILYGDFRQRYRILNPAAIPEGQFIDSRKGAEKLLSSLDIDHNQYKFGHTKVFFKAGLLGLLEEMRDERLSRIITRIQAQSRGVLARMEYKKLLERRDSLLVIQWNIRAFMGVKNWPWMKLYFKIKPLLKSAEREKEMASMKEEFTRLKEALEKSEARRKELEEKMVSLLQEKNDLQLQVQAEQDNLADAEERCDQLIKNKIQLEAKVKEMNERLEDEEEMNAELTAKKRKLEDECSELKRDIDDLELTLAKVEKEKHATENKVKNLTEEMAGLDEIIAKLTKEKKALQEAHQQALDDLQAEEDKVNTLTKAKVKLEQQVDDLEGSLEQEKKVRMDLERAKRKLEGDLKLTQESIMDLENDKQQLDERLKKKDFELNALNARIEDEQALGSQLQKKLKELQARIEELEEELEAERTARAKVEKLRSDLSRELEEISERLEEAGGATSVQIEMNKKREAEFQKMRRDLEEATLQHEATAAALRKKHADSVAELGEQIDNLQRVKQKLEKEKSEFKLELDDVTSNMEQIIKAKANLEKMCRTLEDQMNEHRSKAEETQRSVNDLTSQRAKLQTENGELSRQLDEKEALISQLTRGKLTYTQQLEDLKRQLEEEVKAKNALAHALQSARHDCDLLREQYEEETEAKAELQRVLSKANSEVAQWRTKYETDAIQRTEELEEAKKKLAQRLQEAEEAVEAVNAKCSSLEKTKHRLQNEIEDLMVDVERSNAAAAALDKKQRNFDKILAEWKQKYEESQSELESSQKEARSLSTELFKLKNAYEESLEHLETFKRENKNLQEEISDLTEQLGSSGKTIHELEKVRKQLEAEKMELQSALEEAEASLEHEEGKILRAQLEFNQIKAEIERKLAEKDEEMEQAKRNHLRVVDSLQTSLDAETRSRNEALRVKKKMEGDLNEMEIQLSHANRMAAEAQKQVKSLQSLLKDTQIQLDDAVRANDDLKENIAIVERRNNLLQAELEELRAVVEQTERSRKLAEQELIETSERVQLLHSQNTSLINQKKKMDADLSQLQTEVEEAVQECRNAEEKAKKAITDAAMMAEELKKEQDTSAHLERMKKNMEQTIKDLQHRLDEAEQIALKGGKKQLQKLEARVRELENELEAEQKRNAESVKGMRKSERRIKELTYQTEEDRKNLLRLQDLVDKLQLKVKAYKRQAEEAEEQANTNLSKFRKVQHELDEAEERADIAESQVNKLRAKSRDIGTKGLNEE
T1 sequence (P08590 whole entry partner): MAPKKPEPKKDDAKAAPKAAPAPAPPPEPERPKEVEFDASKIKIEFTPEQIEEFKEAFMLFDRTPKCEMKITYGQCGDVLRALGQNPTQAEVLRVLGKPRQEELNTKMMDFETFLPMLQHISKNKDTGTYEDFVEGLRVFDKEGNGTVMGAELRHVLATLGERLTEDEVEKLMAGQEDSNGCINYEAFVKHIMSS
T1 sequence (P10916 whole entry partner): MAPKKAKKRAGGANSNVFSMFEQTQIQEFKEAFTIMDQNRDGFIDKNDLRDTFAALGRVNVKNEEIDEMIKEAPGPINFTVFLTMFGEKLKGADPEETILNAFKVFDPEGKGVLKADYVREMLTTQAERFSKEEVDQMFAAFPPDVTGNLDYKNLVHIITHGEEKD

In general, pIC50 refers to −log10 of the IC50, conventionally taken in molar units. A high value points to a low IC50. As to `COc1ccc(-c2ccc(=O)n(CC(=O)NCc3cccc(Cl)c3)n2)cc1` [IIIa-8, N-(3-chlorobenzyl)-2-(3-(4-methoxyphenyl)-6-oxopyridazin-1(6H)-yl)acetamide], the pIC50 is under 4.00 in experiment [1] (Table 5C) and over 5.00 in experiment [2] (Table 4C).

Regarding `COc1ccc(-c2ccc(=O)n(CC(=O)Nc3ccc4c(c3)OCO4)n2)cc1` [IIIb-28, N-(benzo[d][1,3]dioxol-5-yl)-2-(3-(4-methoxyphenyl)-6-oxopyridazin-1(6H)-yl)acetamide], the pIC50 in experiment [1] (Table 5C) is under 4.00; in experiment [2] (Table 4C) it was 4.00 to 5.00.

Consider `COc1ccc(-c2ccc(=O)n(CC(=O)NCc3ccon3)n2)cc1` [IIIa-26], for which the results for the pIC50 in experiment [1] (Table 5C) and in experiment [2] (Table 4C) were under 4.00 and 4.00 to 5.00, respectively.

Consider `Cc1ccc(S(=O)(=O)NCc2ccccc2)cc1` [N-benzyl-p-tolyl-sulfonamide (BTS), N-benzyl-p-tolyl-sulfonamide], for which the “protection of muscles from pathological muscle derangement” value in experiment [3] was “protect muscles from pathological muscle derangement”.

On to `CCNC(=O)Cn1nc(-c2cnc(NC34CC(C3)C4)nc2)ccc1=O` [Compound I-59, 2-(3-(2-(bicyclo[1.1.1]pentan-1-ylamino)pyrimidin-5-yl)-6-oxopyridazin-1(6H)-yl)-N-ethylacetamide], for which the pIC50 in experiment [1] (Table 5A) was under 4.00; in experiment [2] (Table 4A), over 5.00.

As to `CCNC(=O)Cn1nc(-c2cnc(OCC3CC(F)(F)C3)nc2)ccc1=O` [Compound I-77, 2-(3-(2-((3,3-difluorocyclobutyl)methoxy)pyrimidin-5-yl)-6-oxopyridazin-1(6H)-yl)-N-ethylacetamide], the pIC50 in experiment [1] (Table 5A) was under 4.00; in experiment [2] (Table 4A), 4.00 to 5.00.

`CCNC(=O)Cn1nc(-c2ccc(NC(C)=O)cc2)ccc1=O` [II-2, 2-(3-(4-acetamidophenyl)-6-oxopyridazin-1(6H)-yl)-N-ethylacetamide]: the figures for the pIC50 in experiment [1] (Table 5B) and in experiment [2] (Table 4B) were under 4.00 and over 5.00, respectively.

Take `O=C(Cn1nc(-c2ccc(Cl)cc2)ccc1=O)Nc1ccccc1Cl` [IIIc-28, N-(2-chlorophenyl)-2-(3-(4-chlorophenyl)-6-oxopyridazin-1(6H)-yl)acetamide]: the figures for the pIC50 in experiment [1] (Table 5C) and in experiment [2] (Table 4C) were 4.00 to 5.00 and over 5.00, respectively.

On to `COc1ccc(-c2ccc(=O)n(CC(=O)NCC3CCOCC3)n2)cc1` [IIIa-29, 2-(3-(4-methoxyphenyl)-6-oxopyridazin-1(6H)-yl)-N-((tetrahydro-2H-pyran-4-yl)methyl) acetamide], for which the negative logarithm of the IC50 (pIC50) in experiment [1] (Table 5C) and in experiment [2] (Table 4C) was under 4.00 in each case.

Consider `CCNC(=O)Cn1nc(-c2ccc(NC3COC3)nc2)ccc1=O` [Compound I-44, N-ethyl-2-(3-(6-(oxetan-3-ylamino)pyridin-3-yl)-6-oxopyridazin-1(6H)-yl)acetamide], for which the negative logarithm of the IC50 (pIC50) was under 4.00 in experiment [1] (Table 5A) and over 5.00 in experiment [2] (Table 4A).

`COc1ccc(-c2ccc(=O)n(CC(=O)NC(C)CCc3ccccc3)n2)cc1` (stereo not shown) [IIIb-30, 2-(3-(4-methoxyphenyl)-6-oxopyridazin-1(6H)-yl)-N-(4-phenylbutan-2-yl)acetamide]: the pIC50 in experiment [1] (Table 5C) and in experiment [2] (Table 4C) was 4.00 to 5.00 each time.

On to `O=C(Cn1nc(-c2ccccc2)ccc1=O)Nc1ccccc1F` [IIIc-66, N-(2-fluorophenyl)-2-(6-oxo-3-phenylpyridazin-1(6H)-yl)acetamide], for which the pIC50 in experiment [1] (Table 5C) and in experiment [2] (Table 4C) was under 4.00 each time.

In the case of `COc1ccc(-c2ccc(=O)n(CC(=O)Nc3cccc4[nH]ccc34)n2)c(F)c1` [IIIb-2, 2-(3-(2-fluoro-4-methoxyphenyl)-6-oxopyridazin-1(6H)-yl)-N-(1H-indol-4-yl)acetamide], the pIC50 is under 4.00 in experiment [1] (Table 5C) and over 5.00 in experiment [2] (Table 4C).

In the case of `COc1ccc(-c2ccc(=O)n(CC(=O)NCc3ccco3)n2)cc1` [IIIb-37, N-(furan-2-ylmethyl)-2-(3-(4-methoxyphenyl)-6-oxopyridazin-1(6H)-yl)acetamide], the pIC50 is under 4.00 in experiment [1] (Table 5C) and 4.00 to 5.00 in experiment [2] (Table 4C).

With `C[C@H](NC(=O)Cn1nc(-c2ccc(OC(F)F)nc2)ccc1=O)c1ccnn1C` [Compound I-29, (S)-2-(3-(6-(difluoromethoxy)pyridin-3-yl)-6-oxopyridazin-1(6H)-yl)-N-(1-(1-methyl-1H-pyrazol-5-yl)ethyl)acetamide], the pIC50 in experiment [1] (Table 5A) and in experiment [2] (Table 4A) was under 4.00 each time.

`Cc1ccc(-c2ccc(=O)n(CC(=O)NC3CCCCC3)n2)cc1` [IIIc-6, N-cyclohexyl-2-(6-oxo-3-(p-tolyl)pyridazin-1(6H)-yl)acetamide]: the pIC50 in experiment [1] (Table 5C) is under 4.00; in experiment [2] (Table 4C), 4.00 to 5.00.

For the molecule `COc1ccc(-c2ccc(=O)n(CC(=O)Nc3ccc(Cl)cc3Cl)n2)c(F)c1` [IIIb-35, N-(2,4-dichlorophenyl)-2-(3-(2-fluoro-4-methoxyphenyl)-6-oxopyridazin-1(6H)-yl)acetamide], the pIC50 in experiment [1] (Table 5C) was under 4.00; in experiment [2] (Table 4C), 4.00 to 5.00.

In the case of `O=C(Cn1nc(-c2ccccc2)ccc1=O)Nc1ccccc1C(F)(F)F` [IIIc-52, 2-(6-oxo-3-phenylpyridazin-1(6H)-yl)-N-(2-(trifluoromethyl)phenyl)acetamide], the pIC50 in experiment [1] (Table 5C) was under 4.00; in experiment [2] (Table 4C) it was 4.00 to 5.00.

For `COc1ccc(-c2ccc(=O)n(CC(=O)NCc3nccn3C)n2)cc1` [IIIa-33, 2-(3-(4-methoxyphenyl)-6-oxopyridazin-1(6H)-yl)-N-((1-methyl-1H-imidazol-2-yl)methyl) acetamide], the pIC50 in experiment [1] (Table 5C) and in experiment [2] (Table 4C) was under 4.00 in each case.

Turning to `O=C(Cn1nc(-c2ccc(OC(F)F)nc2)ccc1=O)NC1CCC1` [Compound I-4, N-cyclobutyl-2-(3-(6-(difluoromethoxy)pyridin-3-yl)-6-oxopyridazin-1(6H)-yl)acetamide], the pIC50 was under 4.00 in experiment [1] (Table 5A) and over 5.00 in experiment [2] (Table 4A).

Take `Cn1nccc1CNC(=O)Cn1nc(-c2ccc(OC(F)F)nc2)ccc1=O` [Compound I-30, 2-(3-(6-(difluoromethoxy)pyridin-3-yl)-6-oxopyridazin-1(6H)-yl)-N-((1-methyl-1H-pyrazol-5-yl)methyl)acetamide]: the pIC50 in experiment [1] (Table 5A) and in experiment [2] (Table 4A) was under 4.00 in each case.

For `O=C(Cn1nc(-c2ccc(Cl)cc2)ccc1=O)Nc1ccccc1Cl` [IIIc-38, N-(2-chlorophenyl)-2-(3-(4-chlorophenyl)-6-oxopyridazin-1(6H)-yl)acetamide], the pIC50 in experiment [1] (Table 5C) is under 4.00; in experiment [2] (Table 4C), over 5.00.

Regarding `CCNC(=O)Cn1nc(-c2ccc(N(C)C34CC(C3)C4)nc2)ccc1=O` [Compound I-64, 2-(3-(6-(bicyclo[1.1.1]pentan-1-yl(methyl)amino)pyridin-3-yl)-6-oxopyridazin-1(6H)-yl)-N-ethylacetamide], the pIC50 in experiment [1] (Table 5A) is 4.00 to 5.00; in experiment [2] (Table 4A) it was over 5.00.

On to `COc1ccc(-c2ccc(=O)n(CC(=O)NC3CCCCC3)n2)cc1` [IIIb-41, N-cyclohexyl-2-(3-(4-methoxyphenyl)-6-oxopyridazin-1(6H)-yl)acetamide], for which the pIC50 in experiment [1] (Table 5C) and in experiment [2] (Table 4C) was under 4.00 throughout.

Take `O=C(Cn1nc(-c2ccccc2)ccc1=O)NCCC1=CCCCC1` [IIIc-48, N-(2-(cyclohex-1-en-1-yl)ethyl)-2-(6-oxo-3-phenylpyridazin-1(6H)-yl)acetamide]: the pIC50 in experiment [1] (Table 5C) was under 4.00; in experiment [2] (Table 4C), over 5.00.

`COc1ccc(-c2ccc(=O)n(CC(=O)NC3CCCC3)n2)cc1` [IIIb-23, N-cyclopentyl-2-(3-(4-methoxyphenyl)-6-oxopyridazin-1(6H)-yl)acetamide]: the pIC50 in experiment [1] (Table 5C) was under 4.00; in experiment [2] (Table 4C) it was 4.00 to 5.00.

Turning to `CCc1ccc(-c2ccc(=O)n(CC(=O)Nc3ccc4c(c3)OCCO4)n2)cc1` [IIIb-44, N-(2,3-dihydrobenzo[b][1,4]dioxin-6-yl)-2-(3-(4-ethylphenyl)-6-oxopyridazin-1(6H)-yl)acetamide], the pIC50 in experiment [1] (Table 5C) and in experiment [2] (Table 4C) was under 4.00 in each case.

Turning to `CC[C@H](C)NC(=O)Cn1nc(-c2ccccc2)ccc1=O` [IIIc-57, (S)-N-(sec-butyl)-2-(6-oxo-3-phenylpyridazin-1(6H)-yl)acetamide], the pIC50 in experiment [1] (Table 5C) is under 4.00; in experiment [2] (Table 4C), 4.00 to 5.00.

For the molecule `CC[C@H](C)NC(=O)Cn1nc(-c2ccc(C)cc2)ccc1=O` [IIIc-2, (S)-N-(sec-butyl)-2-(6-oxo-3-(p-tolyl)pyridazin-1(6H)-yl)acetamide], the pIC50 in experiment [1] (Table 5C) was under 4.00; in experiment [2] (Table 4C), over 5.00.

For the molecule `COc1ccc(-c2ccc(=O)n(CC(=O)Nc3cccc(Cl)c3)n2)cc1` [IIIb-52, N-(3-chlorophenyl)-2-(3-(4-methoxyphenyl)-6-oxopyridazin-1(6H)-yl)acetamide], the pIC50 in experiment [1] (Table 5C) and in experiment [2] (Table 4C) was under 4.00 throughout.

On to `CCNC(=O)Cn1nc(-c2ccc(OC3CC(F)(F)C3)nc2)ccc1=O` [Compound I-75, 2-(3-(6-(3,3-difluorocyclobutoxy)pyridin-3-yl)-6-oxopyridazin-1(6H)-yl)-N-ethylacetamide], for which the figures for the pIC50 in experiment [1] (Table 5A) and in experiment [2] (Table 4A) were under 4.00 and 4.00 to 5.00, respectively.
